Assay results: PMC3419223, “Transient Receptor Potential Ankyrin 1 Channel Localized to Non-Neuronal Airway Cells Promotes Non-Neurogenic Inflammation” (PLoS ONE, 2012)
pEC50: −log10 of the molar value. Ends that are not written are not given here.

How the values were obtained:
[1] = tested on: C57BL/6 mouse trachea and bronchi; assay: Plasma protein extravasation (Evans blue dye) after intratracheal instillation; format: in vivo; details: C57BL/6 mice; for plasma protein extravasation (PPE) after instillation into the tracheal lumen: i.t. 30 µl, acrolein 5 mM, CSE 1 OD, capsaicin 100 µM, SP 25 nM; for effect on SP (25 nM)- and capsaicin (100 µM)-evoked Evans blue dye extravasation (PPE): capsazepine 30 mg/kg i.p., HC-030031 300 mg/kg i.g.
Procedure: (§1) To defunctionalize/desensitize TRPV1 expressing primary sensory neurons, resiniferatoxin (RTX) was administered to C57BL/6 mice, as previously described, [40]. Briefly, mice were treated subcutaneously (s.c.) with a single injection of RTX (50 µg/kg) or its vehicle (10% ethanol and 10% tween 80 in isotonic saline) into the scruff of the neck under a light ether anesthesia to avoid unnecessary pain. Experiments were carried out 7 days after RTX treatment when responses to both TRPV1 and TRPA1 agonists in the treated mice were abolished, [40].
Anesthetized (sodium pentobarbital, 50 mg/kg i.p.) C57BL/6 mice received Evans blue dye (30 mg/kg i.v.), 1 min before intratracheal (i.t) instillation (30 µl) of acrolein (5 mM), capsaicin (100 µM), SP (25 nM), CSE (1 OD) or their vehicles (isotonic saline, 1% ethanol in isotonic saline and isotonic saline). […] The tachykinin NK1 receptor antagonist, L-733,060 (2 µmol/kg i.v.; Tocris) or its vehicle were administered 15 min before the stimulus. The TRPV1 selective antagonist, capsazepine, (30 mg/kg i.p.) or its vehicle (2.5% DMSO in isotonic saline) and intragastric (i.g.) TRPA1 selective antagonist, HC-030031 (300 mg/kg i.g.) or its vehicle were administered 30 and 60 min before the stimulus, respectively. In another set of experiments ACR (5 mM, i.t.), or its vehicle, has been administered in C57BL/6 mice desensitized to RTX (50 µg/kg; s.c.). Animals were euthanized 15 min after treatment and transcardially perfused with 0.9% isotonic saline solution. The extravasated dye was extracted from mouse trachea and bronchi by overnight incubation in formamide and assayed by spectrophotometry at 620 nm, as reported previously.

[2] = tested on: C57BL/6 mice, Trpa1+/+ or Trpa1-/- mice; assay: KC (CXCL-1) release in bronchoalveolar lavage fluid, ELISA; format: in vivo, mouse; details: for KC in BAL 24 hours after intratracheal instillation: i.t. 30 µl, acrolein 5 mM, CSE 1 OD, capsaicin 100 µM, SP 25 nM
Procedure: as §1
Trpa1^+/+ or Trpa1^−/− B6129P mice (5 per group) were exposed acutely to the cigarette smoke (CS) produced with commercial cigarettes (Marlboro Red, 12 mg of tar, 0.9 mg of nicotine each), by using a “nose-only” exposure unit. The smoke produced by cigarette burning was introduced into the exposure chamber (inner volume = 11.61 l) with the airflow generated by a mechanical ventilator (7025 Rodent Ventilator, Ugo Basile) at a rate of 250 ml/min [58]. A second mechanical ventilator was used to provide room air for dilution (1∶8) of the smoke stream. Mice were exposed to the smoke of 5 cigarettes per exposure period, twice daily, for 3 consecutive days, and sacrificed 24 hours later. Genotype-, age-, strain- and sex-matched control animals were exposed to air only in the same manner for the same duration of time. Anesthetized C57BL/6, and Trpa1^+/+ or Trpa1^−/− (C57BL/6) mice were intratracheally administered with (30 µl) acrolein (5 mM), capsaicin (100 µM), SP (25 nM) and CSE (1 OD) or their vehicles (isotonic saline, 1% ethanol in isotonic saline and isotonic saline) and sacrificed 24 hours later. The NK1 receptor antagonist, L-733,060 (2 µmol/kg i.v.; Tocris) or its vehicle (isotonic saline) were administered 15 min before the stimulus, and i.g. HC-030031 (300 mg/kg) or its vehicle (0.5% CMC in isotonic saline 0.9%) were administered 1 hour before the stimulus. In another set of experiments ACR (5 mM, i.t.), or its vehicle, has been administered in C57BL/6 mice desensitized to RTX (50 µg/kg; s.c.). Animals were sacrificed 24 hours after the last exposure/treatment with an overdose of anesthetic followed by exsanguination, and the lungs were lavaged using a cannula inserted into the trachea and instilling 1 ml of Hank's Buffer added with HEPES 10 mM and EDTA 10 mM three times. […] BAL were centrifuged at 200× g at 4°C for 10 min, and the cell-free supernatants were stored at −80°C for cytokine determination. Frozen cell-free BAL was analyzed for keratinocyte chemoattractant (CXCL-1/KC, the murine analogue of IL-8) release by using a commercial ELISA-assay (Invitrogen).

[3] = tested on: TRPV1; assay: Calcium imaging, response to the TRPV1 agonist capsaicin in human airway/lung cells; format: cell-based; details: 1 µM; SAEC, A549, NHLF, IMR90 and HBSMC; data not shown
[4] = tested on: IL-8 release from SAEC, NHLF and HBSMC; assay: IL-8 release from human airway/lung cells in primary culture, ELISA; format: cell-based; details: for IL-8 release: overnight exposure
Procedure: For IL-8 ELISA assays, HBSMC, SAEC, and NHLF were seeded in complete culture medium in 48-well plates, grown to ∼80–90% confluence, and incubated overnight in serum-free medium before treatments. All the treatments were performed in serum free medium. Cells were pretreated with the selective TRPA1 antagonists, HC-030031 and AP18, or their vehicles, for 30–60 min before treatment with freshly prepared acrolein, CSE, TNF-α and IL-1β for 18 hours at 37°C with 5% CO2. Subsequently, supernatants were collected and stored at −80°C for ELISA assay. Human IL-8 was measured using a paired antibody quantitative ELISA kit (Invitrogen) (detection limit: 5 pg/ml). The assays were performed according to the manufacturer's instructions. Vitality assay method (MTT reduction assay) is available online as (Text S1).

[5] = molecular target: T1, TRPA1 (Homo sapiens, UniProt O75762); assay: Calcium imaging (Fura-2) of TRPA1 agonist responses in human airway/lung cells; format: cell-based; details: for pEC50: intracellular calcium response
T1 construct: cultured human airway cells, including fibroblasts, epithelial and smooth muscle cells express functional TRPA1 channels; endogenous in cells; host or cells: SAEC, NHLF, HBSMC (Lonza, primary); A549, IMR90 (ATCC)
Procedure: Human small airway epithelial cells (SAEC), normal human lung fibroblasts (NHLF) and human bronchial smooth muscle cells (HBSMC) were purchased from Lonza. Human alveolar type II epithelium-like adherent cell line (A549) and human lung embryonic fibroblast (IMR90) were purchased from American Type Culture Collection (Manassas, VA). SAEC and NHLF were cultured respectively in SAGM and FBM medium (Lonza) according to the manufacturer's instructions. IMR90 and HBSMC were cultured in DMEM supplemented with 10% FBS, 2 mM glutamine, 100 U penicillin and 100 µg/ml streptomycin (Sigma-Aldrich), and A549 were cultured in RPMI supplemented with 10% FBS, 2 mM glutamine, 100 U penicillin, 100 µg/ml streptomycin and 1 mM HEPES (Sigma-Aldrich). All cells were cultured in an atmosphere of 95% air and 5% CO2 at 37°C.
CSE was generated as previously reported. Briefly, aqueous CSE was obtained from the combustion of four cigarettes (Marlboro Red, 12 mg of tar, 0.9 mg of nicotine each) bubbled through 50 ml of buffer and subsequently filtered through a 0.2-µm pore filter (Millipore). To ensure reproducibility among different CSE batches, the absorbance (optical density; OD) measured at 320 nm was used as a measure of the “strength” of the extract. Dilutions were made with buffer to obtain the desired absorbance. The CSE was freshly prepared on the day of the experiment and used immediately after preparation.
(§2) For calcium fluorescence measurements, cells were incubated with 5 µM Fura-2AM ester (Alexis Biochemicals) for 40 minutes at 37°C. Intracellular calcium levels were measured and recorded with a dynamic image analysis system (Laboratory Automation 2.0; RC Software). Fluorescence was measured during excitation at 340 and 380 nm, and after correction for the individual background fluorescence signals, the ratio of the fluorescence at both excitation wavelengths (Ratio340/380) was monitored. Experiments were performed using buffer solution containing (in mM): 150 NaCl, 6 KCl, 1 MgCl2, 1.5 CaCl2, 10 glucose, 10 HEPES at pH 7.4. Cells were stimulated with cinnamaldehyde (0.1–3000 µM), acrolein (0.1–3000 µM), CSE (0.001–0.5 OD), capsaicin (1 µM) and the activating peptide (SLIGKV-NH2) of the human PAR-2 receptor (hPAR-2 AP; 100 µM), or their respective vehicles (0.3% DMSO,aqueous buffer or 1% ethanol). HC-030031 and AP18 vehicles (used in all the in vitro experiments) were 3% DMSO and 1% DMSO, respectively. Results are expressed as the increase of Ratio340/380 over the baseline normalized to the maximum effect induced by ionomycin (5 µM) added at the end of the experiment.

[6] = molecular target: T2, PAR-2 receptor (Homo sapiens, UniProt P55085); assay: Calcium imaging, response to the PAR-2 activating peptide (selectivity control); format: cell-based; details: PAR-2 AP 100 µM; antagonist 10 µM
T2 construct: endogenous in cells
T2 sequence (P55085 26-397): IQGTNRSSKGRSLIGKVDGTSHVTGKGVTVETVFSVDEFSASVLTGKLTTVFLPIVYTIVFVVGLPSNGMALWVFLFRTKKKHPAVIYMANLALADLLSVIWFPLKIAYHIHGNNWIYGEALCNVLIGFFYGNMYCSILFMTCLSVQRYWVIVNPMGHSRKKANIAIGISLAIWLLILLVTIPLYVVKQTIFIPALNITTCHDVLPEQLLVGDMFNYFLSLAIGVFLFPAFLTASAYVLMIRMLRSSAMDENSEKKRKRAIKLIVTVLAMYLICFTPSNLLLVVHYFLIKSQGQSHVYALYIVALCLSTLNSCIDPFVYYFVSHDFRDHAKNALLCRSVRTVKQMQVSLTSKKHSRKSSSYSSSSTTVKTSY
Procedure: as §2

T1 sequence (O75762 whole entry): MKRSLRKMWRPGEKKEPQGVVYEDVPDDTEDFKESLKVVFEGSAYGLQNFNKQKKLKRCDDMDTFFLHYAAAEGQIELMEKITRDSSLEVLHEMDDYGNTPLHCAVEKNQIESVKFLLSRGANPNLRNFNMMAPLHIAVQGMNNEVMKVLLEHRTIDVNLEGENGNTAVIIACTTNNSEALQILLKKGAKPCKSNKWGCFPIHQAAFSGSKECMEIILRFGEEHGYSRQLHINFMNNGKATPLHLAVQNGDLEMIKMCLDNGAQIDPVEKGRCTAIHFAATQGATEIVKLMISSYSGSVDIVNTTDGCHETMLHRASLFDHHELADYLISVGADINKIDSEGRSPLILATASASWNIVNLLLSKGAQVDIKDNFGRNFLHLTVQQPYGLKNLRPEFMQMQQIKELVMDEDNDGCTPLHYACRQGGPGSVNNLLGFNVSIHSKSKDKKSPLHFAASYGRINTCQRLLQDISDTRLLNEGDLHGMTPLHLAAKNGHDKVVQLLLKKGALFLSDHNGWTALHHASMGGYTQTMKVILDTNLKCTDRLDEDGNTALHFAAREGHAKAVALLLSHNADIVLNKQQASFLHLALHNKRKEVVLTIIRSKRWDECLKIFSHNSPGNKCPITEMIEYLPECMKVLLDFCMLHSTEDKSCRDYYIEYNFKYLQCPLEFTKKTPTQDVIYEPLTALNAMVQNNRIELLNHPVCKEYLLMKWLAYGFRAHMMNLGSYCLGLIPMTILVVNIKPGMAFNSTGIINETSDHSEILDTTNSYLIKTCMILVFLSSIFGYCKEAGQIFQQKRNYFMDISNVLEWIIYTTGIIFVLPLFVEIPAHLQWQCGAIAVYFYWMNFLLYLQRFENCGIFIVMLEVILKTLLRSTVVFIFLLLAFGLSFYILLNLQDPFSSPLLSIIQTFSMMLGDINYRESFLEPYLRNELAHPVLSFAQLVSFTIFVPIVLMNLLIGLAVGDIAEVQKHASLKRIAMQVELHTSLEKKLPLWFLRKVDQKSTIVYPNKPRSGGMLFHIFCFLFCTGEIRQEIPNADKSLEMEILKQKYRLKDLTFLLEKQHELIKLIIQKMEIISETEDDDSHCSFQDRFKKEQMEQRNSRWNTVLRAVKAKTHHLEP

Compound: COc1cc(CNC(=O)CCCC/C=C/C(C)C)ccc1O [capsaicin]
- plasma protein extravasation (PPE) after instillation into the tracheal lumen [1]: increased PPE
- KC in BAL 24 hours after intratracheal instillation ([2]; C57BL/6 mice): failed to increase
- calcium response [3]: failed to produce any visible calcium response

Compound: O=C/C=C/c1ccccc1 [Cinnamaldehyde, cinnamaldehyde]
- IL-8 release [4]: release IL-8
- pEC50 ([5]; A549): 4.96
- pEC50 ([5]; HBSMC): 5.17
- pEC50 ([5]; IMR90): 5.57
- pEC50 ([5]; NHLF): 5.18
- pEC50 ([5]; SAEC): 4.33

Compound: CC(=C\c1ccc(Cl)cc1)/C(C)=N/O [AP18]
- effect of antagonist on calcium response to the PAR-2 activating peptide [6]: did not affect
- effect of antagonist on CSE-evoked IL-8 release ([4]; HC-030031 30 µM, AP18 10 µM): reduced
- effect of antagonist on IL-8 release induced by IL-1β or TNF-α ([4]; HC-030031 30 µM, AP18 10 µM): not affected
- effect of antagonist on acrolein-evoked IL-8 release ([4]; HC-030031 30 µM, AP18 10 µM): significantly reduced
- effect of antagonist on calcium response evoked by CNM, ACR or CSE ([5]; A549 and IMR90, antagonist 10 µM): abolished
- effect of antagonist on calcium responses to CNM, ACR and CSE ([5]; SAEC, NHLF, HBSMC, antagonist 10 µM): prevented

Compound: substance P (RPKPQQFFGLM-NH2; ends and bridges not checked; UniProt P20366 58-68, looked up) [SP, neuropeptide tachykinin released from sensory nerve terminals]
- plasma protein extravasation (PPE) after instillation into the tracheal lumen [1]: increased PPE
- KC in BAL 24 hours after intratracheal instillation ([2]; C57BL/6 mice): failed to increase

Compound: C=C(C)[C@]12C[C@@H](C)[C@@]34O[C@](Cc5ccccc5)(O[C@@H]1[C@@H]3C=C(COC(=O)Cc1ccc(O)c(OC)c1)C[C@]1(O)C(=O)C(C)=C[C@@H]41)O2 [RTX, resiniferatoxin]
- acrolein-induced PPE after desensitization ([1]; RTX 50 µg/kg s.c., 7 days before, ACR 5 mM i.t.): completely abolished
- acrolein-induced increase in KC in BAL fluid after desensitization ([2]; RTX 50 µg/kg s.c., 7 days before, ACR 5 mM i.t., C57BL/6 mice): remained unchanged

Compound: Oc1cc2c(cc1O)CN(C(=S)NCCc1ccc(Cl)cc1)CCC2 [capsazepine]
- effect on SP (25 nM)- and capsaicin (100 µM)-evoked Evans blue dye extravasation (PPE) ([1]; L-733,060 2 µmol/kg i.v.): prevented

Compound: C=CC=O [Acrolein, acrolein]
- plasma protein extravasation (PPE) after instillation into the tracheal lumen [1]: increased PPE
- KC release in Trpa1-/- mice ([2]; 5 mM i.t., Trpa1-/- mice (C57BL/6)): completely absent
- KC in BAL 24 hours after intratracheal instillation ([2]; C57BL/6 mice): significantly increased
- IL-8 release [4]: concentration-dependent IL-8 release
- pEC50 ([5]; A549): 5.14
- pEC50 ([5]; HBSMC): 5.20
- pEC50 ([5]; IMR90): 5.54
- pEC50 ([5]; NHLF): 5.36
- pEC50 ([5]; SAEC): 4.24

Compound: FC(F)(F)c1cc(CO[C@H]2CCCN[C@H]2c2ccccc2)cc(C(F)(F)F)c1 [L-733,060]
- effect on acrolein (5 mM, i.t.)- and CSE (1 OD, i.t.)-evoked increase in PPE ([1]; L-733,060 2 µmol/kg i.v., CPZ 30 mg/kg i.p., HC 300 mg/kg i.g.): prevent
- effect on SP (25 nM)- and capsaicin (100 µM)-evoked Evans blue dye extravasation (PPE) ([1]; L-733,060 2 µmol/kg i.v.): prevented
- effect of pretreatment on KC release evoked by acrolein or CSE ([2]; HC-030031 300 mg/kg i.g., L-733,060 2 µmol/kg i.v., C57BL/6 mice): failed to reduce
